The results in this text go back to patent US20200032249A1, “LABELING, ISOLATION, & ANALYSIS OF RNA FROM RARE CELL POPULATIONS” (priority 2017, published 2020).

The test system of this assay is MDA231 cells expressing CD/UPRT in mouse lungs. Kind of assay: Flura-seq of lung micrometastases, reads aligned to hybrid human-mouse genome. It is filed as in vivo. Here is the method: FIG. 3 a-g. Flura-tagging of mRNA in vivo. FIG. 3a—Schematic diagram of lung colonization xenograft assay used for evaluation of Flura-tagging/Flura-seq. Athymic mice were injected through the tail vein with 50,000 MDA231 cells expressing CD/UPRT and GFP-luciferase. Upon the development of detectable bioluminescent lung metastases (4 weeks), mice were treated with doxycycline to induce CD/UPRT expression and injected with 5-FC. Lungs were harvested, and Flura-tagged mRNAs were immunopurified. FIG. 3b—Comparison of signal-to-noise ratio of Flura-tagging and TU-tagging in vivo. Mice were injected with either 5-FC or TU, the Flura-tagged or TU-tagged mRNAs were purified 12 h post injection, and the relative fold enrichment of representative human housekeeping genes relative to representative murine housekeeping genes (mHPRT1, mLDH1, mPGK1 and mGAPDH), normalized to their corresponding unpurified inputs, were measured by RT-PCR (n=5, ±S.E.). FIG. 3c—Quantification of the number of human cells in the mouse lungs used for Flura-tagging. Half of the mouse lungs used for Flura-tagging in FIG. 3b was dissociated into single cells, and the number of RFP+ cells was quantified using flow cytometry. The total number of MDA231 cells per lung was estimated based on an assumption of 1.5×10^8 cells per mouse lung (20) (n=5). […] RNA reads were aligned to a hybrid genome containing the human and mouse genomes. […]

Turning to `Nc1nc(=O)[nH]cc1F` [5-FC, 5-fluorocytosine], the “aligned reads mapped to human genome” value is on record as “approximately 53%” (mice treated for 4 h) and 74% (mice treated for 12 h).
